Source: patent publication US20140205662A1, “SYSTEM AND METHOD FOR […] TIMED LOCAL […] OF A COMBINATION PHARMACEUTICAL PREPARATION FOR ORAL THERAPY” (The Research Foundation for The State University of New York, priority 2010, published 2014)

Tested on: gingival fibroblasts
Protocol: To determine whether the co-administration of these two compounds was cytotoxic, the following experiments were carried out.

For `C[C@H]1c2cccc(O)c2C(=O)C2=C(O)[C@]3(O)C(=O)C(C(N)=O)=C(O)[C@@H](N(C)C)[C@@H]3[C@@H](O)[C@@H]21` [doxycycline], the “cytotoxicity (in words)” value was “relatively increasing cytotoxicity with increasing concentration” and the relative cytotoxicity was 0 to 0.231 mg/mL.
For `CC(C(=O)O)c1ccc(-c2ccccc2)c(F)c1` (stereo not shown) [flurbiprofen], the “cytotoxicity (in words)” value was “relatively low cytotoxicity” and the relative cytotoxicity was 0 to 0.031 mg/mL.
